Laboratory results: patent publication EP0726263A2, “Herbicidal (1,3,4)oxadiazoles and thiadiazoles” (American Cyanamid Company, priority 1995, dated 1996)

Legend:
Assay type in all cases: in vivo
Chenopodium album [1] = test: Herbicidal activity, preemergence test; settings: pre; sprayed onto soil, 800 g of active material per hectare; evaluated 3 weeks after treatment
Method: (§1) To evaluate their herbicidal activity, compounds according to the invention are tested using a representative range of plants: TRZAW Triticum aestivum HORVW Hordeum vulgare ZEAMX Zea mays GOSHI Gossypium hirsutum HELAN Helianthus annuus GLYMA Glycine max ALOMY Alopecurus myosuroides SETVI Setaria viridis ECHCG Echinochloa crus-galli GALAP Galium aparine STEME Stellaria media VERPE Veronica persica VIOAR Viola arvensis IPOHE Ipomoea hederacea LAMPU Lamium purpureum PAPRH Papaver rhoeas MATIN Matricaria inodora AMARE Amaranthus retroflexus ABUTH Abutilon theophrasti AMBEL Ambrosia artemisifolia CHEAL Chenopodium album
(§2) The tests fall into two categories, preemergence and postemergence. The preemergence tests involve spraying a liquid formulation of the compound onto the soil in which the seeds have recently been sown. The postemergence tests involve spraying a liquid formulation of the compound onto seedling plants.
(§3) The soil used in the tests is a prepared horticultural loam.
(§4) The formulations used in the tests are prepared from solutions of the test compounds in acetone containing 0.4% by weight of an alkylphenol/ethylene oxide condensate available under the trade mark TRITON X-155. These acetone solutions are diluted with water and the resulting formulations applied at dosage levels corresponding to 800 g of active material per hectare in a volume equivalent to 900 litres per hectare.
(§5) In the preemergence tests untreated sown soil and in the postemergence tests untreated soil bearing seedling plants are used as controls.
(§6) Results of herbicide evaluation are expressed on a rating scale (0-9). The scale is based upon a visual observation of plant stand, vigor, malformation, size, chlorosis, and general plant appearance as compared to a control. Preemergence and postemergence treatments are evaluated at 3 and 2 weeks after treatment, respectively.

Amaranthus retroflexus [2] = test: Herbicidal activity, preemergence test; settings: pre; sprayed onto soil, 800 g of active material per hectare; evaluated 3 weeks after treatment
Method: as §1, §2, §3, §4, §5, §6

Abutilon theophrasti [3] = test: Herbicidal activity, preemergence test; settings: pre; sprayed onto soil, 800 g of active material per hectare; evaluated 3 weeks after treatment
Method: as §1, §2, §3, §4, §5, §6

Ambrosia artemisifolia [4] = test: Herbicidal activity, preemergence test; settings: pre; sprayed onto soil, 800 g of active material per hectare; evaluated 3 weeks after treatment
Method: as §1, §2, §3, §4, §5, §6

Galium aparine [5] = test: Herbicidal activity, preemergence test; settings: pre; sprayed onto soil, 800 g of active material per hectare; evaluated 3 weeks after treatment
Method: as §1, §2, §3, §4, §5, §6

Hordeum vulgare [6] = test: Herbicidal activity, preemergence test; settings: pre; sprayed onto soil, 800 g of active material per hectare; evaluated 3 weeks after treatment
Method: as §1, §2, §3, §4, §5, §6

Ipomoea hederacea [7] = test: Herbicidal activity, preemergence test; settings: pre; sprayed onto soil, 800 g of active material per hectare; evaluated 3 weeks after treatment
Method: as §1, §2, §3, §4, §5, §6

Alopecurus myosuroides [8] = test: Herbicidal activity, preemergence test; settings: pre; sprayed onto soil, 800 g of active material per hectare; evaluated 3 weeks after treatment
Method: as §1, §2, §3, §4, §5, §6

Matricaria inodora [9] = test: Herbicidal activity, preemergence test; settings: pre; sprayed onto soil, 800 g of active material per hectare; evaluated 3 weeks after treatment
Method: as §1, §2, §3, §4, §5, §6

Papaver rhoeas [10] = test: Herbicidal activity, preemergence test; settings: pre; sprayed onto soil, 800 g of active material per hectare; evaluated 3 weeks after treatment
Method: as §1, §2, §3, §4, §5, §6

Veronica persica [11] = test: Herbicidal activity, preemergence test; settings: pre; sprayed onto soil, 800 g of active material per hectare; evaluated 3 weeks after treatment
Method: as §1, §2, §3, §4, §5, §6

Zea mays [12] = test: Herbicidal activity, preemergence test; settings: pre; sprayed onto soil, 800 g of active material per hectare; evaluated 3 weeks after treatment
Method: as §1, §2, §3, §4, §5, §6

Stellaria media [13] = test: Herbicidal activity, preemergence test; settings: pre; sprayed onto soil, 800 g of active material per hectare; evaluated 3 weeks after treatment
Method: as §1, §2, §3, §4, §5, §6

Gossypium hirsutum [14] = test: Herbicidal activity, preemergence test; settings: pre; sprayed onto soil, 800 g of active material per hectare; evaluated 3 weeks after treatment
Method: as §1, §2, §3, §4, §5, §6

Setaria viridis [15] = test: Herbicidal activity, preemergence test; settings: pre; sprayed onto soil, 800 g of active material per hectare; evaluated 3 weeks after treatment
Method: as §1, §2, §3, §4, §5, §6

Triticum aestivum [16] = test: Herbicidal activity, preemergence test; settings: pre; sprayed onto soil, 800 g of active material per hectare; evaluated 3 weeks after treatment
Method: as §1, §2, §3, §4, §5, §6

Glycine max [17] = test: Herbicidal activity, preemergence test; settings: pre; sprayed onto soil, 800 g of active material per hectare; evaluated 3 weeks after treatment
Method: as §1, §2, §3, §4, §5, §6

Lamium purpureum [18] = test: Herbicidal activity, preemergence test; settings: pre; sprayed onto soil, 800 g of active material per hectare; evaluated 3 weeks after treatment
Method: as §1, §2, §3, §4, §5, §6

Chenopodium album [19] = test: Herbicidal activity, postemergence test; settings: post; sprayed onto seedling plants, 800 g of active material per hectare; evaluated 2 weeks after treatment
Method: as §1, §2, §3, §4, §5, §6

Amaranthus retroflexus [20] = test: Herbicidal activity, postemergence test; settings: post; sprayed onto seedling plants, 800 g of active material per hectare; evaluated 2 weeks after treatment
Method: as §1, §2, §3, §4, §5, §6

Abutilon theophrasti [21] = test: Herbicidal activity, postemergence test; settings: post; sprayed onto seedling plants, 800 g of active material per hectare; evaluated 2 weeks after treatment
Method: as §1, §2, §3, §4, §5, §6

Ambrosia artemisifolia [22] = test: Herbicidal activity, postemergence test; settings: post; sprayed onto seedling plants, 800 g of active material per hectare; evaluated 2 weeks after treatment
Method: as §1, §2, §3, §4, §5, §6

Galium aparine [23] = test: Herbicidal activity, postemergence test; settings: post; sprayed onto seedling plants, 800 g of active material per hectare; evaluated 2 weeks after treatment
Method: as §1, §2, §3, §4, §5, §6

Hordeum vulgare [24] = test: Herbicidal activity, postemergence test; settings: post; sprayed onto seedling plants, 800 g of active material per hectare; evaluated 2 weeks after treatment
Method: as §1, §2, §3, §4, §5, §6

Ipomoea hederacea [25] = test: Herbicidal activity, postemergence test; settings: post; sprayed onto seedling plants, 800 g of active material per hectare; evaluated 2 weeks after treatment
Method: as §1, §2, §3, §4, §5, §6

Alopecurus myosuroides [26] = test: Herbicidal activity, postemergence test; settings: post; sprayed onto seedling plants, 800 g of active material per hectare; evaluated 2 weeks after treatment
Method: as §1, §2, §3, §4, §5, §6

Matricaria inodora [27] = test: Herbicidal activity, postemergence test; settings: post; sprayed onto seedling plants, 800 g of active material per hectare; evaluated 2 weeks after treatment
Method: as §1, §2, §3, §4, §5, §6

Papaver rhoeas [28] = test: Herbicidal activity, postemergence test; settings: post; sprayed onto seedling plants, 800 g of active material per hectare; evaluated 2 weeks after treatment
Method: as §1, §2, §3, §4, §5, §6

Veronica persica [29] = test: Herbicidal activity, postemergence test; settings: post; sprayed onto seedling plants, 800 g of active material per hectare; evaluated 2 weeks after treatment
Method: as §1, §2, §3, §4, §5, §6

Zea mays [30] = test: Herbicidal activity, postemergence test; settings: post; sprayed onto seedling plants, 800 g of active material per hectare; evaluated 2 weeks after treatment
Method: as §1, §2, §3, §4, §5, §6

Stellaria media [31] = test: Herbicidal activity, postemergence test; settings: post; sprayed onto seedling plants, 800 g of active material per hectare; evaluated 2 weeks after treatment
Method: as §1, §2, §3, §4, §5, §6

Gossypium hirsutum [32] = test: Herbicidal activity, postemergence test; settings: post; sprayed onto seedling plants, 800 g of active material per hectare; evaluated 2 weeks after treatment
Method: as §1, §2, §3, §4, §5, §6

Setaria viridis [33] = test: Herbicidal activity, postemergence test; settings: post; sprayed onto seedling plants, 800 g of active material per hectare; evaluated 2 weeks after treatment
Method: as §1, §2, §3, §4, §5, §6

Triticum aestivum [34] = test: Herbicidal activity, postemergence test; settings: post; sprayed onto seedling plants, 800 g of active material per hectare; evaluated 2 weeks after treatment
Method: as §1, §2, §3, §4, §5, §6

Glycine max [35] = test: Herbicidal activity, postemergence test; settings: post; sprayed onto seedling plants, 800 g of active material per hectare; evaluated 2 weeks after treatment
Method: as §1, §2, §3, §4, §5, §6

Lamium purpureum [36] = test: Herbicidal activity, postemergence test; settings: post; sprayed onto seedling plants, 800 g of active material per hectare; evaluated 2 weeks after treatment
Method: as §1, §2, §3, §4, §5, §6

SMILES | CHEAL control rating (0-9) (Chenopodium album [1]) | AMARE control rating (0-9) (Amaranthus retroflexus [2]) | ABUTH control rating (0-9) (Abutilon theophrasti [3]) | AMBEL control rating (0-9) (Ambrosia artemisifolia [4]) | GALAP control rating (0-9) (Galium aparine [5]) | HORVW control rating (0-9) (Hordeum vulgare [6]) | IPOHE control rating (0-9) (Ipomoea hederacea [7]) | ALOMY control rating (0-9) (Alopecurus myosuroides [8]) | MATIN control rating (0-9) (Matricaria inodora [9]) | PAPRH control rating (0-9) (Papaver rhoeas [10]) | VERPE control rating (0-9) (Veronica persica [11]) | ZEAMX control rating (0-9) (Zea mays [12]) | STEME control rating (0-9) (Stellaria media [13]) | GOSHI control rating (0-9) (Gossypium hirsutum [14]) | SETVI control rating (0-9) (Setaria viridis [15]) | TRZAW control rating (0-9) (Triticum aestivum [16]) | GLXMA control rating (0-9) (Glycine max [17]) | LAMPU control rating (0-9) (Lamium purpureum [18]) | CHEAL control rating (0-9) (Chenopodium album [19]) | AMARE control rating (0-9) (Amaranthus retroflexus [20]) | also measured
O=C(NCc1cccs1)c1nnc(-c2ccc(F)cc2)o1 [Example 8] | 5 (definite injury) | 9 (complete kill) | 0 (no effect) | 3 (moderate effect) | 0 (no effect) | 0 (no effect) | 0 (no effect) | 0 (no effect) | 5 (definite injury) | 9 (complete kill) | 7 (good herbicidal effect) | 2 (slight effect) | 7 (good herbicidal effect) | 2 (slight effect) | 3 (moderate effect) | 0 (no effect) | 2 (slight effect) | 0 (no effect) | 4 (injury) | 8 (approaching complete kill) | ABUTH control rating (0-9) (Abutilon theophrasti [21]): 3 (moderate effect); AMBEL control rating (0-9) (Ambrosia artemisifolia [22]): 3 (moderate effect); GALAP control rating (0-9) (Galium aparine [23]): 0 (no effect); HORVW control rating (0-9) (Hordeum vulgare [24]): 0 (no effect); IPOHE control rating (0-9) (Ipomoea hederacea [25]): 0 (no effect); ALOMY control rating (0-9) (Alopecurus myosuroides [26]): 0 (no effect); MATIN control rating (0-9) (Matricaria inodora [27]): 2 (slight effect); PAPRH control rating (0-9) (Papaver rhoeas [28]): 3 (moderate effect); VERPE control rating (0-9) (Veronica persica [29]): 4 (injury); ZEAMX control rating (0-9) (Zea mays [30]): 0 (no effect); STEME control rating (0-9) (Stellaria media [31]): 5 (definite injury); GOSHI control rating (0-9) (Gossypium hirsutum [32]): 0 (no effect); SETVI control rating (0-9) (Setaria viridis [33]): 0 (no effect); TRZAW control rating (0-9) (Triticum aestivum [34]): 0 (no effect); GLXMA control rating (0-9) (Glycine max [35]): 0 (no effect); LAMPU control rating (0-9) (Lamium purpureum [36]): 0 (no effect)
O=C(NCc1ccccc1)c1nnc(-c2ccc(F)cc2)o1 [Example 9] | 0 (no effect) | 0 (no effect) | 0 (no effect) | 0 (no effect) | 0 (no effect) | 0 (no effect) | 0 (no effect) | 0 (no effect) | 0 (no effect) | 6 (herbicidal effect) | 7 (good herbicidal effect) | 0 (no effect) | 0 (no effect) | 0 (no effect) | 3 (moderate effect) | 0 (no effect) | 1 (trace effect) | 0 (no effect) | 0 (no effect) | 0 (no effect) | ABUTH control rating (0-9) (Abutilon theophrasti [21]): 3 (moderate effect); AMBEL control rating (0-9) (Ambrosia artemisifolia [22]): 0 (no effect); GALAP control rating (0-9) (Galium aparine [23]): 0 (no effect); HORVW control rating (0-9) (Hordeum vulgare [24]): 0 (no effect); IPOHE control rating (0-9) (Ipomoea hederacea [25]): 0 (no effect); ALOMY control rating (0-9) (Alopecurus myosuroides [26]): 0 (no effect); MATIN control rating (0-9) (Matricaria inodora [27]): 0 (no effect); PAPRH control rating (0-9) (Papaver rhoeas [28]): 0 (no effect); VERPE control rating (0-9) (Veronica persica [29]): 0 (no effect); ZEAMX control rating (0-9) (Zea mays [30]): 0 (no effect); STEME control rating (0-9) (Stellaria media [31]): 0 (no effect); GOSHI control rating (0-9) (Gossypium hirsutum [32]): 0 (no effect); SETVI control rating (0-9) (Setaria viridis [33]): 0 (no effect); TRZAW control rating (0-9) (Triticum aestivum [34]): 0 (no effect); GLXMA control rating (0-9) (Glycine max [35]): 0 (no effect); LAMPU control rating (0-9) (Lamium purpureum [36]): 0 (no effect)
